Source: patent publication US7402314B2, “In vivo activation of tumor-specific cytotoxic T cells” (The Scripps Research Institute, priority 1995, dated 2008)

Target: A2.1/K^b (UniProt P01901+P04439, D140Y/D185E/D98H/E176V/G131W/I119V/I121R/I166T/N151K/N90K/Q86G/Q94H/R138H/R169H)
Assay type: binding, human-mouse chimeric

Sequence	binding of test peptide to A2.1/K^b (percent specific lysis of EA2/K^b targets by influenza A-specific CTL)	inhibition of binding of the influenza A-derived peptide to A2.1/K^b by Her-2/Neu-derived peptides
ILKEPVHGV [HIV-1 RT 476-484, reference compound]	efficiently bound to A2.1/K^b	–
ILLVVVLGV [Peptide H9]	–	binding at the highest efficiency
